In PubChem BioAssay (NCI):
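Five compound concentrations were applied to cells in 96-well plates for 48 hours; endpoints were derived by simple linear interpolation of the resulting dose-response curve. GI50 is the concentration that inhibits growth by half. At the TGI there is no net growth.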

Key:
Assay in all cases: inhibition of tumour cell growth, NCI panel, 48 h
[1] = tested on: SN12C renal
[2] = tested on: M14 melanoma
[3] = tested on: T-47D breast
[4] = tested on: MOLT-4 leukemia
[5] = tested on: UACC-62 melanoma
[6] = tested on: LOX IMVI melanoma
[7] = tested on: SNB-75 CNS
[8] = tested on: NCI-H23 lung
[9] = tested on: NCI-H226 lung
[10] = tested on: HCT-15 colon
[11] = tested on: HCT-116 colon
[12] = tested on: SF-268 CNS
[13] = tested on: SF-539 CNS
[14] = tested on: EKVX NSCLC
[15] = tested on: DU-145 prostate
[16] = tested on: HOP-62 NSCLC
[17] = tested on: SF-295 CNS
[18] = tested on: UO-31 renal
[19] = tested on: SNB-19 CNS
[20] = tested on: UACC-257 melanoma
[21] = tested on: A549 NSCLC
[22] = tested on: OVCAR-8 ovarian
[23] = tested on: K-562 leukemia
[24] = tested on: OVCAR-3 ovarian
[25] = tested on: U251 CNS
[26] = tested on: CCRF-CEM leukemia
[27] = tested on: RXF 393 renal
[28] = tested on: KM12 colon
[29] = tested on: NCI/ADR-RES ovarian
[30] = tested on: HCC-2998 colon
[31] = tested on: HS 578T breast
[32] = tested on: HL-60(TB) leukemia
[33] = tested on: SK-MEL-5 melanoma
[34] = tested on: PC-3 prostate
[35] = tested on: NCI-H522 lung
[36] = tested on: ACHN renal
[37] = tested on: HOP-92 NSCLC
[38] = tested on: MDA-MB-435
[39] = tested on: 786-0 renal
[40] = tested on: SK-MEL-28 melanoma
[41] = tested on: HT29 colon
[42] = tested on: MALME-3M melanoma
[43] = tested on: COLO 205 colon
[44] = tested on: OVCAR-5 ovarian
[45] = tested on: NCI-H460 lung
[46] = tested on: SW-620 colon
[47] = tested on: CAKI-1 renal
[48] = tested on: MDA-MB-231 breast
[49] = tested on: TK-10 renal
[50] = tested on: OVCAR-4 ovarian
[51] = tested on: SK-OV-3 ovarian
[52] = tested on: SK-MEL-2 melanoma
[53] = tested on: MCF7 breast
[54] = tested on: RPMI-8226 leukemia
[55] = tested on: IGROV1 ovarian
[56] = tested on: SR leukemia
[57] = tested on: A498 renal

In the case of Oc1c(C(O)c2ccccn2)ccc2ccccc12 (stereo not given), the TGI [1] is reported as greater than 100 µM, the TGI [2] is reported as greater than 100 µM and the TGI [3] is reported as greater than 100 µM. It also gave a TGI [4] greater than 100 µM, a TGI [5] of 46.1 µM and a TGI [6] greater than 100 µM. For the same molecule, the TGI [7] was greater than 100 µM, the TGI [8] was greater than 100 µM and the TGI [9] was greater than 100 µM. It also gave a TGI [10] of 97 µM, a TGI [11] greater than 100 µM and a TGI [12] greater than 100 µM. For the same molecule, the TGI [13] was greater than 100 µM, the TGI [14] was greater than 100 µM and the TGI [15] was greater than 100 µM. For the same molecule, the TGI [16] was greater than 100 µM, the TGI [17] was greater than 100 µM and the TGI [18] was greater than 100 µM. For the same molecule, the TGI [19] was greater than 100 µM, the TGI [20] was greater than 100 µM and the TGI [21] was greater than 100 µM. For the same molecule, the TGI [22] was greater than 100 µM, the TGI [23] was greater than 100 µM and the TGI [24] was greater than 100 µM. For the same molecule, the TGI [25] was greater than 100 µM, the TGI [26] was greater than 100 µM and the TGI [27] was greater than 100 µM. The TGI [28] was greater than 100 µM, the TGI [29] was greater than 100 µM and the TGI [30] was 59.4 µM. For the same molecule, the TGI [31] was greater than 100 µM, the TGI [32] was 42.1 µM and the TGI [33] was greater than 100 µM. For the same molecule, the TGI [34] was greater than 100 µM, the TGI [35] was 74.1 µM and the TGI [36] was greater than 100 µM.

With S=c1[nH]n2c(Cc3ccccc3)nnc2s1 the TGI [1] was greater than 100 µM, the TGI [2] was greater than 100 µM and the TGI [37] was greater than 100 µM. It also gave a TGI [3] greater than 100 µM, a TGI [4] greater than 100 µM and a TGI [5] greater than 100 µM. For the same molecule, the TGI [6] was greater than 100 µM, the TGI [38] was greater than 100 µM and the TGI [8] was greater than 100 µM. For the same molecule, the TGI [9] was greater than 100 µM, the TGI [10] was greater than 100 µM and the TGI [11] was greater than 100 µM. The TGI [39] was greater than 100 µM, the TGI [12] was greater than 100 µM and the TGI [13] was greater than 100 µM. It also gave a TGI [40] greater than 100 µM, a TGI [41] greater than 100 µM and a TGI [42] greater than 100 µM. It also gave a TGI [14] greater than 100 µM, a TGI [15] greater than 100 µM and a TGI [16] greater than 100 µM. The TGI [43] was greater than 100 µM, the TGI [44] was greater than 100 µM and the TGI [17] was greater than 100 µM. The TGI [45] was greater than 100 µM, the TGI [18] was greater than 100 µM and the TGI [46] was greater than 100 µM. It also gave a TGI [19] greater than 100 µM, a TGI [20] greater than 100 µM and a TGI [21] greater than 100 µM. For the same molecule, the TGI [47] was greater than 100 µM, the TGI [48] was greater than 100 µM and the TGI [22] was greater than 100 µM. It also gave a TGI [23] greater than 100 µM, a TGI [24] greater than 100 µM and a TGI [25] greater than 100 µM. The TGI [26] was greater than 100 µM, the TGI [49] was greater than 100 µM and the TGI [27] was greater than 100 µM. The TGI [50] was greater than 100 µM, the TGI [28] was greater than 100 µM and the TGI [29] was greater than 100 µM. It also gave a TGI [51] greater than 100 µM, a TGI [52] greater than 100 µM and a TGI [30] greater than 100 µM. For the same molecule, the TGI [53] was greater than 100 µM, the TGI [31] was greater than 100 µM and the TGI [32] was greater than 100 µM. For the same molecule, the TGI [33] was greater than 100 µM, the TGI [34] was greater than 100 µM and the TGI [54] was greater than 100 µM. For the same molecule, the TGI [35] was greater than 100 µM, the TGI [55] was greater than 100 µM and the TGI [36] was greater than 100 µM.

With CCOc1ccc2nc(S/C(=C/C=C(C#N)C#N)c3ccc(Cl)cc3)sc2c1 the GI50 [1] was 2.86 µM, the TGI [1] was 8.18 µM and the GI50 [2] was 2.13 µM. It also gave a TGI [2] of 4.61 µM, a GI50 [3] of 3.91 µM and a TGI [3] of 17.4 µM. It also gave a GI50 [4] of 1.65 µM, a TGI [4] greater than 100 µM and a GI50 [5] of 3.21 µM. For the same molecule, the TGI [5] was 12.5 µM, the GI50 [6] was 0.546 µM and the TGI [6] was 2.03 µM. The GI50 [38] was 3.18 µM, the TGI [38] was 9.84 µM and the GI50 [8] was 3.1 µM. The TGI [8] was 10.1 µM, the GI50 [9] was 3.63 µM and the TGI [9] was 13.2 µM. It also gave a GI50 [10] of 2.42 µM, a TGI [10] of 8.81 µM and a GI50 [11] of 0.937 µM. It also gave a TGI [11] of 2.6 µM, a GI50 [56] of 1.96 µM and a TGI [56] of 7.8 µM. It also gave a GI50 [39] of 1.95 µM, a TGI [39] of 4.37 µM and a GI50 [12] of 4.63 µM. The TGI [12] was 19 µM, the GI50 [13] was 3.6 µM and the TGI [13] was 9.24 µM. For the same molecule, the GI50 [40] was 3.81 µM, the TGI [40] was 15.9 µM and the GI50 [42] was 3.52 µM. The TGI [42] was 21.9 µM, the GI50 [14] was 12.9 µM and the TGI [14] was 28.9 µM. The GI50 [15] was 3.51 µM, the TGI [15] was 10.7 µM and the GI50 [16] was 4.08 µM. The TGI [16] was 13.2 µM, the GI50 [43] was 3.26 µM and the TGI [43] was 11 µM. For the same molecule, the GI50 [44] was 15.2 µM, the TGI [44] was 28.5 µM and the GI50 [17] was 9.85 µM. For the same molecule, the TGI [17] was 28.3 µM, the GI50 [45] was 7.49 µM and the TGI [45] was 25 µM. The GI50 [18] was 8.08 µM, the TGI [18] was 27 µM and the GI50 [46] was 0.631 µM. The TGI [46] was 2.92 µM, the GI50 [19] was 6.72 µM and the TGI [19] was 24.5 µM. It also gave a GI50 [20] of 9.1 µM, a TGI [20] of 22.1 µM and a GI50 [21] of 16.4 µM. The TGI [21] was 33.2 µM, the GI50 [57] was 2.46 µM and the TGI [57] was 8.6 µM. The GI50 [47] was 4.34 µM, the TGI [47] was 15.3 µM and the GI50 [48] was 1.91 µM. For the same molecule, the TGI [48] was 5.08 µM, the GI50 [22] was 3.48 µM and the TGI [22] was 10.3 µM. For the same molecule, the GI50 [23] was 3.43 µM, the TGI [23] was 18.3 µM and the GI50 [24] was 2.99 µM. It also gave a TGI [24] of 10.9 µM, a GI50 [25] of 0.628 µM and a TGI [25] of 4.29 µM. The GI50 [26] was 0.57 µM, the TGI [26] was 3.19 µM and the GI50 [49] was 2.91 µM. For the same molecule, the TGI [49] was 9.83 µM, the GI50 [27] was 5.3 µM and the TGI [27] was 23.5 µM. For the same molecule, the GI50 [50] was 12.4 µM, the TGI [50] was 43.8 µM and the GI50 [28] was 3.84 µM. It also gave a TGI [28] of 15.2 µM, a GI50 [29] of 2.32 µM and a TGI [29] of 5.19 µM. The GI50 [51] was 4.34 µM, the TGI [51] was 15.3 µM and the GI50 [53] was 6.56 µM. It also gave a TGI [53] of 26.7 µM, a GI50 [31] of 4.22 µM and a TGI [31] of 16.8 µM. For the same molecule, the GI50 [32] was 3.08 µM, the TGI [32] was 34.3 µM and the GI50 [33] was 1.76 µM. The TGI [33] was 3.86 µM, the GI50 [34] was 4.16 µM and the TGI [34] was 11.8 µM. The GI50 [35] was 4.43 µM, the TGI [35] was 15.2 µM and the GI50 [55] was 3.57 µM. For the same molecule, the TGI [55] was 13 µM.
